According to patent US20250234864A1 (priority 2022, published 2025):
Several values for one entry are separate records, joined by “and”; a condition that tells them apart may be missing. Equal values may be shown once. Read-outs that look alike come from different tables or passages of the source.

Columns and labels:
Pyricularia oryzae [1] = assay: whole plant or invertebrate; format: in vivo; conditions: rice seedlings, spray before inoculation; for pest or weed control at 0.01 ppm: read-out: Control Efficacy, spray concentration 0.01 ppm; for pest or weed control at 1 ppm: read-out: Control Efficacy, spray concentration 1 ppm; for pest or weed control at 25 ppm: read-out: Control Efficacy, spray concentration 25 ppm; for pest or weed control at 100 ppm: read-out: Control Efficacy, spray concentration 100 ppm
Pyricularia oryzae [2] = format: in vivo; conditions: spray after lesions on rice seedlings, two natural infections

Work on `CON=C(C(=O)OC)c1ccccc1CON=C(C)c1cccc(C(F)(F)F)c1` [Trifloxystrobin] yielded a pest or weed control at 0.01 ppm (Pyricularia oryzae [1]; Pyricularia oryzae) of 75%.
For `CO/N=C(/C1=NOCCO1)c1ccccc1Oc1ncnc(Oc2ccccc2Cl)c1F` [Fluoxastrobin], the pest or weed control at 0.01 ppm (Pyricularia oryzae [1]; Pyricularia oryzae) was 22% and the pest or weed control at 1 ppm (Pyricularia oryzae [1]; Pyricularia oryzae) was 93%.
With `CC1COC(Cn2cncn2)(c2ccc(Oc3ccc(Cl)cc3)cc2Cl)O1` (centres unmarked) [Diphenoconazole] the “Control Efficacy” value (Pyricularia oryzae [1]; spray concentration 50 ppm) was 62 and the “Control Efficacy” value (Pyricularia oryzae [1]; spray concentration 100 ppm) was 86.
With `CNC(=O)C(OC)c1ccccc1COc1cc(C)ccc1C` (centres unmarked) [Mandestrobin] the “Control Efficacy” value (Pyricularia oryzae [1]; spray concentration 0.1 ppm) was 0.
With `OC(Cc1ccccc1Cl)(Cn1nc[nH]c1=S)C1(Cl)CC1` (centres unmarked) [Prothioconazole] the pest or weed control at 1 ppm (Pyricularia oryzae [1]; Pyricularia oryzae) was 39%, the pest or weed control at 25 ppm (Pyricularia oryzae [1]; Pyricularia oryzae) was 82% and the pest or weed control at 100 ppm (Pyricularia oryzae [1]; Pyricularia oryzae) was 95%.
For `CC(C1CC1)C(O)(Cn1cncn1)c1ccc(Cl)cc1` (centres unmarked) [Ciproconazole], the “Control Efficacy” value (Pyricularia oryzae [1]; spray concentration 10 ppm) was 11.
`CCCC1COC(Cn2cncn2)(c2ccc(Cl)cc2Cl)O1` (centres unmarked) [Propiconazole] was tested, and the pest or weed control at 100 ppm (Pyricularia oryzae [1]; Pyricularia oryzae) was 72% and the “Control Efficacy” value (Pyricularia oryzae [2]; spray concentration 52 ppm) was 55.
`CCCCC(O)(Cn1cncn1)c1ccc(Cl)cc1Cl` (centres unmarked) [Hexaconazole] showed a pest or weed control at 25 ppm (Pyricularia oryzae [1]; Pyricularia oryzae) of 55% and a pest or weed control at 100 ppm (Pyricularia oryzae [1]; Pyricularia oryzae) of 86%.
Inpyrfluxam was tested, and the “Control Efficacy” value (Pyricularia oryzae [1]; spray concentration 100 ppm) was 74.
With `CO/C=C(/C(=O)OC)c1ccccc1COc1cccc(C(F)(F)F)n1` [Picoxystrobin] the “Control Efficacy” value (Pyricularia oryzae [1]; spray concentration 0.01 ppm) was 22 and the “Control Efficacy” value (Pyricularia oryzae [1]; spray concentration 0.1 ppm) was 68.
In the case of `COC(=O)N(OC)c1ccccc1COc1ccn(-c2ccc(Cl)cc2)n1` [Pyraclostrobin], the pest or weed control at 0.01 ppm (Pyricularia oryzae [1]; Pyricularia oryzae) was 44% and the pest or weed control at 0.1 ppm (Pyricularia oryzae [1]; Pyricularia oryzae, read-out: Control Efficacy, spray concentration 0.1 ppm) was 64%.
`CC(=O)Oc1c(C)c(C)nc2c(F)cc(C(C)(C)C)cc12` [Tebufloquin] was tested, and the “Control Efficacy” value (Pyricularia oryzae [1]; spray concentration 10 ppm) was 84 and 76 and 86 and 51 and 48, the “Control Efficacy” value (Pyricularia oryzae [1]; spray concentration 20 ppm) was 97 and 90 and 70 and the “Control Efficacy” value (Pyricularia oryzae [2]; spray concentration 83 ppm, lesions on uppermost unfolded leaf of 50 seedlings) was 80 and 81.
For `Cc1nn(C)c(F)c1C(=O)Nc1ccccc1C(C)CC(C)C` (centres unmarked) [Penflufen], the “Control Efficacy” value (Pyricularia oryzae [1]; spray concentration 1 ppm) was 11.
For `O=C1CCc2cccc3c2N1CC3` [Pyroquilon], the pest or weed control at 100 ppm (Pyricularia oryzae [1]; Pyricularia oryzae) was 22%.
With `CC(O)(Cn1cncn1)c1ccc(Oc2ccc(Cl)cc2)cc1C(F)(F)F` (centres unmarked) [Mefentrifluconazole] the “Control Efficacy” value (Pyricularia oryzae [1]; spray concentration 25 ppm) was 35 and the “Control Efficacy” value (Pyricularia oryzae [1]; spray concentration 100 ppm) was 44.
For `O=C(Nc1ccccc1-c1ccc(F)c(F)c1)c1nccnc1C(F)(F)F` [Pyraziflumid], the “Control Efficacy” value (Pyricularia oryzae [1]; spray concentration 10 ppm) was 0 and the “Control Efficacy” value (Pyricularia oryzae [1]; spray concentration 100 ppm) was 56.
In the case of `Cc1nc2c(F)c(F)ccc2cc1Oc1cccc(F)c1C(C)(C)O` [Ipflufenoquin], the “Control Efficacy” value (Pyricularia oryzae [1]; spray concentration 0.01 ppm) was 0 and the “Control Efficacy” value (Pyricularia oryzae [1]; spray concentration 0.1 ppm) was 76.
In the case of `CC(C)(C)C(O)(CCc1ccc(Cl)cc1)Cn1cncn1` (centres unmarked) [Tebuconazole], the pest or weed control at 10 ppm (Pyricularia oryzae [1]; Pyricularia oryzae, read-out: Control Efficacy, spray concentration 10 ppm) was 58% and the “Control Efficacy” value (Pyricularia oryzae [2]; spray concentration 52 ppm) was 63.
